According to the supplement of paper PMC11208160:

Assay: recombinant barcode read abundance after kanamycin selection (control-corrected) (log10(CPM+1)); higher = more efficient recombination; sequences stand for … in AGTGCAGAGAAAATCGGCCAGTTTTCTCTGCCTGCAGTCCGCATGCCGT…AGATTTATGCAGCGGACTGCCTTTCTCCCAAAGTGATAAACCGGACAGTATCATGGACCGGTTTTCCCGGTAATCCGTATTTGCAAGGTTGGTTTCACT; site = the 11-nt target
Procedure, shortened: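 This pooled E. coli screen matched targets with IS621 bridge RNA target-binding loops. Plating was done in duplicate on chloramphenicol/ampicillin LB agar as a control and on chloramphenicol/ampicillin/kanamycin plus 0.1 mM IPTG. Recombination efficiency reflects barcode counts at recombinant junctions as counts per million, averaged and control-corrected. The figures are log10(CPM+1).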
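Further: IS621 recombinase and bridge RNA in Escherichia coli cells.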

| Sequence | recombinant barcode read abundance (log10) |
| --- | --- |
| GATGGTCCTTGGGTTCTAACCTGTTGCGG (site GATGGTCCTCC) | 2.34 |
| GATTATACTTGGGTTCTAACCTGTTGCTT (site GATTATACTAA) | 0.0285 |
| GATTATACTTGGGTTCTAACCTGTTGCTT (site TGCGGAGCTCG) | 0.046 |
| GATTCTCCTTGGGTTCTAACCTGTTGCCT (site GATTCTCCTAA) | 0.0949 |
| GATTCTCCTTGGGTTCTAACCTGTTGCCT (site GATTCTCCTAC) | 0.0529 |
| GATTCTCCTTGGGTTCTAACCTGTTGCCT (site GATTCTCCTAG) | 0.0773 |
| GATTCTCCTTGGGTTCTAACCTGTTGCCT (site GATTCTCCTAT) | 0 |
| GATTGTCCTTGGGTTCTAACCTGTTGCTT (site GATTGTCCTAA) | 0.294 |
| GATTGTCCTTGGGTTCTAACCTGTTGCTT (site GGTTGTCCTTA) | 0.23 |
| GCAATCCCTTGGGTTCTAACCTGTTGCTA (site AGAATCCCTTA) | 0.0668 |
| GCAATCCCTTGGGTTCTAACCTGTTGCTA (site GCAATCCCTTA) | 1.48 |
| GCAATTGCTTGGGTTCTAACCTGTTGCCT (site AAGTCGTCTTA) | 0.19 |
| GCAATTGCTTGGGTTCTAACCTGTTGCCT (site GCAATTGCTAG) | 0.458 |
| GCACAAGCTTGGGTTCTAACCTGTTGCCT (site GCACAAGCTAG) | 0.978 |
| GCACAAGCTTGGGTTCTAACCTGTTGCCT (site GCTCTAGCTAG) | 0.091 |
| GCACATACTTGGGTTCTAACCTGTTGCCT (site GCACATACTAG) | 1.2 |
| GCACATACTTGGGTTCTAACCTGTTGCCT (site GCACATTCTAG) | 0 |
| GCACCAACTTGGGTTCTAACCTGTTGCCT (site CCACCGACTAG) | 0.242 |
| GCACCAACTTGGGTTCTAACCTGTTGCCT (site GCACCAACTAG) | 1.12 |
| GCACGACCTTGGGTTCTAACCTGTTGCCT (site GCACAACCTAG) | 0.808 |
| GCACGACCTTGGGTTCTAACCTGTTGCCT (site GCACCACCTAG) | 0.0505 |
| GCACGACCTTGGGTTCTAACCTGTTGCCT (site GCACGACCTAG) | 1.56 |

| Sequence | recombinant barcode read abundance (log10) |
| --- | --- |
| GCACGACCTTGGGTTCTAACCTGTTGCCT (site GCACTACCTAG) | 0 |
| GCACGGACTTGGGTTCTAACCTGTTGCAG (site GCAAGGACTCT) | 0.223 |
| GCACGGACTTGGGTTCTAACCTGTTGCAG (site GCACGGACTCT) | 2.35 |
| GCACGGACTTGGGTTCTAACCTGTTGCAG (site GCAGGGACTCT) | 0.164 |
| GCACGGACTTGGGTTCTAACCTGTTGCAG (site GCATGGACTCT) | 0.3 |
| GCACTAACTTGGGTTCTAACCTGTTGCCT (site GCACTAACTAG) | 1.14 |
| GCACTAACTTGGGTTCTAACCTGTTGCCT (site GCACTAGCTAC) | 0.216 |
| GCAGGGACTTGGGTTCTAACCTGTTGCAG (site GCAAGGACTCT) | 0.883 |
| GCAGGGACTTGGGTTCTAACCTGTTGCAG (site GCACGGACTCT) | 0.552 |
| GCAGGGACTTGGGTTCTAACCTGTTGCAG (site GCAGGGACTCT) | 1.72 |
| GCAGGGACTTGGGTTCTAACCTGTTGCAG (site GCATGGACTCT) | 0.224 |
| GCAGGGTCTTGGGTTCTAACCTGTTGCCT (site GCAAGATCTAG) | 0.158 |
| GCAGGGTCTTGGGTTCTAACCTGTTGCCT (site GCAGGGTCTAG) | 1.45 |
| GCATCGTCTTGGGTTCTAACCTGTTGCCT (site GCATCGTCTAG) | 0.649 |
| GCATCGTCTTGGGTTCTAACCTGTTGCCT (site GCCTCGTCTAG) | 0.0437 |
| GCATCGTCTTGGGTTCTAACCTGTTGCCT (site GCGTCGTCTAG) | 0.0424 |
| GCATCGTCTTGGGTTCTAACCTGTTGCCT (site GCTTCGTCTAG) | 0.0989 |
| GCCAACCCTTGGGTTCTAACCTGTTGCTT (site GCCAACCCTAA) | 0.0414 |
| GCCAACCCTTGGGTTCTAACCTGTTGCTT (site GCCAACCCTAC) | 0.0528 |
| GCCAACCCTTGGGTTCTAACCTGTTGCTT (site GCCAACCCTAG) | 0.412 |
| GCCAACCCTTGGGTTCTAACCTGTTGCTT (site GCCAACCCTAT) | 0.39 |
| GCCATCACTTGGGTTCTAACCTGTTGCCT (site GCCATAACTAG) | 0.00743 |

| Sequence | recombinant barcode read abundance (log10) |
| --- | --- |
| GCCATCACTTGGGTTCTAACCTGTTGCCT (site GCCATCACTAG) | 0.112 |
| GCCATCACTTGGGTTCTAACCTGTTGCCT (site GCCATGACTAG) | 0.152 |
| GCCATCACTTGGGTTCTAACCTGTTGCCT (site GCCATTACTAG) | 0.12 |
| GCCATCTCTTGGGTTCTAACCTGTTGCCT (site GCCATCTCTAG) | 0.0476 |
| GCCATCTCTTGGGTTCTAACCTGTTGCCT (site GCCGTCTCTAG) | 0.0992 |
| GCCATGTCTTGGGTTCTAACCTGTTGCCT (site GCCATGTCTAG) | 0.502 |
| GCCATGTCTTGGGTTCTAACCTGTTGCCT (site GTCATGTCTAG) | 0.0158 |
| GCCCATCCTTGGGTTCTAACCTGTTGCTA (site GCCCATCCTTA) | 1.36 |
| GCCCATCCTTGGGTTCTAACCTGTTGCTA (site TAGTGAGCTCG) | 0.222 |
| GCCCCATCTTGGGTTCTAACCTGTTGCCT (site GCCCAATCTAG) | 0.00703 |
| GCCCCATCTTGGGTTCTAACCTGTTGCCT (site GCCCCATCTAG) | 0.601 |
| GCCCCATCTTGGGTTCTAACCTGTTGCCT (site GCCCGATCTAG) | 0.37 |
| GCCCCATCTTGGGTTCTAACCTGTTGCCT (site GCCCTATCTAG) | 0.384 |
| GCCCCGCCTTGGGTTCTAACCTGTTGCAG (site GCCACGCCTCT) | 0.319 |
| GCCCCGCCTTGGGTTCTAACCTGTTGCAG (site GCCCCGCCTCT) | 1.02 |
| GCCCCGCCTTGGGTTCTAACCTGTTGCAG (site GCCGCGCCTCT) | 0.00897 |
| GCCCCGCCTTGGGTTCTAACCTGTTGCAG (site GCCTCGCCTCT) | 0.0556 |
| GCCCGGGCTTGGGTTCTAACCTGTTGCCG (site GCCAGGGCTCG) | 0.144 |
| GCCCGGGCTTGGGTTCTAACCTGTTGCCG (site GCCCGGGCTCG) | 0.309 |
| GCCCGGGCTTGGGTTCTAACCTGTTGCCG (site GCCGGGGCTCG) | 0.0496 |
| GCCCGGGCTTGGGTTCTAACCTGTTGCCG (site GCCTGGGCTCG) | 0.0679 |
| GCCCGTGCTTGGGTTCTAACCTGTTGCCT (site GCACGTGCTAG) | 0.377 |

| Sequence | recombinant barcode read abundance (log10) |
| --- | --- |
| GCCCGTGCTTGGGTTCTAACCTGTTGCCT (site GCCCGTGCTAG) | 1.31 |
| GCCCGTGCTTGGGTTCTAACCTGTTGCCT (site GCGCGTGCTAG) | 0.177 |
| GCCCGTGCTTGGGTTCTAACCTGTTGCCT (site GCTCGTGCTAG) | 0.0122 |
| GCCCTGCCTTGGGTTCTAACCTGTTGCCT (site GCACTGCCTAG) | 0.705 |
| GCCCTGCCTTGGGTTCTAACCTGTTGCCT (site GCCCTGCCTAG) | 1.43 |
| GCCCTTGCTTGGGTTCTAACCTGTTGCCT (site GAACTTGCTAG) | 0.114 |
| GCCCTTGCTTGGGTTCTAACCTGTTGCCT (site GCCCTTGCTAG) | 1.79 |
| GCCGACACTTGGGTTCTAACCTGTTGCCT (site GCCGAAACTAG) | 0.0569 |
| GCCGACACTTGGGTTCTAACCTGTTGCCT (site GCCGACACTAG) | 0.13 |
| GCCGACACTTGGGTTCTAACCTGTTGCCT (site GCCGAGACTAG) | 0.284 |
| GCCGACACTTGGGTTCTAACCTGTTGCCT (site GCCGATACTAG) | 0.17 |
| GCCGAGTCTTGGGTTCTAACCTGTTGCTC (site GCCGAGTCTAA) | 0.191 |
| GCCGAGTCTTGGGTTCTAACCTGTTGCTC (site GCCGAGTCTCA) | 0.0833 |
| GCCGAGTCTTGGGTTCTAACCTGTTGCTC (site GCCGAGTCTGA) | 1.2 |
| GCCGAGTCTTGGGTTCTAACCTGTTGCTC (site GCCGAGTCTTA) | 0.371 |
| GCCGATCCTTGGGTTCTAACCTGTTGCCT (site GACGATCCTAG) | 0.332 |
| GCCGATCCTTGGGTTCTAACCTGTTGCCT (site GCCGATCCTAG) | 0.12 |
| GCCGATCCTTGGGTTCTAACCTGTTGCCT (site GGCGATCCTAG) | 0.205 |
| GCCGATCCTTGGGTTCTAACCTGTTGCCT (site GTCGATCCTAG) | 0.0291 |
| GCCGCGCCTTGGGTTCTAACCTGTTGCAG (site GCCACGCCTCT) | 0.0533 |
